Test results published in ChEMBL document CHEMBL3751781, “Three-dimensional QSAR analysis and design of new 1,2,4-oxadiazole antibacterials” (2016).
≈ marks a conversion by molar mass, not a printed value.

System: Staphylococcus aureus
Experiment: Antibacterial against Staphylococcus aureus
Type: functional
Details: for MIC: Staphylococcus aureus

Row | SMILES | -logMIC | MIC [µg/mL]
1 | c1ccc(Oc2ccc(-c3noc(-c4ccncc4)n3)cc2)cc1 | 0.902 | 128 (≈ 406 µM)
2 | FC(F)(F)c1ccc(Oc2ccc(-c3noc(-c4cc[nH]n4)n3)cc2)cc1 | 0.923 | 128 (≈ 344 µM)
3 | O=[N+]([O-])c1c(F)cc(-c2nc(-c3ccc(Oc4ccccc4)cc3)no2)cc1F | 1.128 | 128 (≈ 324 µM)
4 | CC(=O)N(C(C)=O)c1c[nH]nc1-c1nc(-c2ccc(Oc3ccc(C(F)(F)F)cc3)cc2)no1 | 1.304 | 128 (≈ 272 µM)
5 | Oc1ccc(Oc2ccc(-c3noc(-c4ccc(F)cc4)n3)cc2)cc1 | 1.001 | 128 (≈ 367 µM)
6 | O=[N+]([O-])c1c[nH]nc1-c1nc(-c2ccc(Oc3ccc(F)c(F)c3)cc2)no1 | 5.261 | 2 (≈ 5.19 µM)
7 | Fc1ccc(Oc2ccc(-c3noc(-c4c[nH]c5ncccc45)n3)cc2)cc1 | 1.068 | 128 (≈ 344 µM)
8 | Oc1ccc(-c2nc(-c3ccc(Oc4ccc(Br)cc4)cc3)no2)cc1 | 5.321 | 2 (≈ 4.89 µM)
9 | Oc1ccc(-c2nc(-c3ccc(Oc4ccc(CBr)cc4)cc3)no2)cc1 | 1.196 | 128 (≈ 302 µM)
10 | O=C(O)c1ccc(Oc2ccc(-c3noc(-c4ccc(O)cc4)n3)cc2)cc1 | 1.766 | 64 (≈ 171 µM)
11 | Brc1c[nH]nc1-c1nc(-c2ccc(Oc3ccccc3)cc2)no1 | 5.949 | 
12 | OCC#Cc1c[nH]nc1-c1nc(-c2ccc(Oc3ccc(C(F)(F)F)cc3)cc2)no1 | 4.669 | 
13 | FC(F)(F)c1ccc(Oc2ccc(-c3noc(-c4c[nH]c5ncccc45)n3)cc2)cc1 | 1.194 | 128 (≈ 303 µM)
14 | Fc1ccc(-c2nc(-c3ccc(Oc4ccccc4)cc3)no2)cc1 | 0.954 | 128 (≈ 385 µM)
15 | Fc1ccc(Oc2ccc(-c3noc(-c4cc[nH]c4)n3)cc2)cc1 | 0.92 | 128 (≈ 398 µM)
16 | Nc1cncc(-c2nc(-c3ccc(Oc4ccc(C(F)(F)F)cc4)cc3)no2)c1 | 1.135 | 128 (≈ 321 µM)
17 | CS(=O)(=O)Nc1ccc(-c2nc(-c3ccc(Oc4ccc(C(F)(F)F)cc4)cc3)no2)cc1 | 1.312 | 128 (≈ 269 µM)
18 | Nc1c[nH]nc1-c1nc(-c2ccc(Oc3ccc(F)c(F)c3)cc2)no1 | 3.794 | 8 (≈ 22.5 µM)
19 | Oc1ccccc1-c1nc(-c2ccc(Oc3ccccc3)cc2)no1 | 0.948 | 128 (≈ 387 µM)
20 | COc1ccc(-c2nc(-c3ccc(Oc4ccc(F)cc4)cc3)no2)cc1OC | 1.12 | 128 (≈ 326 µM)
21 | COc1ccc(-c2nc(-c3ccc(Oc4ccc(F)cc4)cc3)no2)cc1[N+](=O)[O-] | 1.158 | 128 (≈ 314 µM)

Row | SMILES | -logMIC | MIC [µg/mL]
22 | O=P(O)(O)Oc1ccc(Oc2ccc(-c3noc(-c4ccc(F)cc4)n3)cc2)cc1 | 1.208 | 128 (≈ 299 µM)
23 | CCCCNc1c[nH]nc1-c1nc(-c2ccc(Oc3ccc(C(F)(F)F)cc3)cc2)no1 | 1.243 | 128 (≈ 289 µM)
24 | O=c1[nH]c(-c2ccc(Oc3ccccc3)cc2)no1 | 0.686 | 128 (≈ 503 µM)
25 | Oc1ccc(-c2noc(-c3ccc(O)cc3)n2)cc1 | 0.686 | 128 (≈ 503 µM)
26 | Oc1c(F)cc(-c2nc(-c3ccc(Oc4ccc(C(F)(F)F)cc4)cc3)no2)cc1F | 5.381 | 
27 | O=[N+]([O-])c1ccccc1Oc1ccc(-c2noc(-c3ccc(O)cc3)n2)cc1 | 4.542 | 4 (≈ 10.7 µM)
28 | O=[N+]([O-])c1c[nH]nc1-c1nc(-c2ccc(Oc3ccc(C(F)(F)F)cc3)cc2)no1 | 5.341 | 
29 | FC(F)(F)c1ccc(Oc2ccc(-c3noc(-c4n[nH]cc4Cl)n3)cc2)cc1 | 6.008 | 
30 | Nc1ccc(-c2nc(-c3ccc(Oc4ccc(C(F)(F)F)cc4)cc3)no2)cc1F | 5.336 | 
31 | Oc1ccc(-c2nc(-c3ccc(Oc4ccncc4)cc3)no2)cc1 | 0.951 | 128 (≈ 386 µM)
32 | Oc1ccc(-c2nc(-c3ccc(Oc4ccccc4)c(Cl)c3)no2)cc1 | 5.206 | 2 (≈ 5.48 µM)
33 | Nc1c(F)cc(-c2nc(-c3ccc(Oc4ccccc4)cc3)no2)cc1F | 3.821 | 
34 | FC(F)(F)c1ccc(Oc2ccc(-c3noc(-c4n[nH]cc4NC4CCCCC4)n3)cc2)cc1 | 1.3 | 128 (≈ 273 µM)
35 | c1ccc(Oc2ccc(-c3noc(-c4ccc5[nH]ccc5c4)n3)cc2)cc1 | 5.174 | 4 (≈ 11.3 µM)
36 | Oc1ccc(-c2nc(-c3ccc(Oc4cccnc4)cc3)no2)cc1 | 0.951 | 128 (≈ 386 µM)
37 | Oc1ccc(Oc2ccc(-c3noc(-c4ccc(O)cc4)n3)cc2)cc1 | 2.382 | 32 (≈ 92.4 µM)
38 | Cc1nc(-c2ccc(Oc3ccc(C(F)(F)F)cc3)cc2)no1 | 0.917 | 128 (≈ 400 µM)
39 | Oc1ccc(-c2nc(-c3ccc(Oc4ccccc4)c(F)c3)no2)cc1 | 3.774 | 8 (≈ 23 µM)
40 | Nc1c(F)cc(-c2nc(-c3ccc(Oc4ccc(C(F)(F)F)cc4)cc3)no2)cc1F | 5.378 | 2 (≈ 4.62 µM)
41 | Nc1c[nH]nc1-c1nc(-c2ccc(Oc3ccccc3)cc2)no1 | 2.994 | 
42 | FC(F)(F)c1ccc(Oc2ccc(-c3noc(-c4n[nH]cc4I)n3)cc2)cc1 | 5.518 | 
